# Measured values from patent US9242996B2 (Novartis AG, priority 2013, dated 2016).
# Target: activated ERK2 (Homo sapiens (Human), UniProt P28482)
# Test: Activated ERK2 (20 pM) Kinase Assay (AlphaScreen, ERKtide phosphorylation)
# Assay type: biochemical
# Conditions: 0.02 nM ERK2, 400 nM ERKtide peptide, 35 μM ATP, 30 min preincubation
# Procedure, shortened: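 AlphaScreen read-out (anti-phospho-EGFR Thr669 antibody, protein A acceptor/streptavidin donor beads) of ERKtide (400 nM) phosphorylation by 20 pM activated ERK2 at 35 μM ATP.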
# activated ERK2, sequence (P28482 whole entry): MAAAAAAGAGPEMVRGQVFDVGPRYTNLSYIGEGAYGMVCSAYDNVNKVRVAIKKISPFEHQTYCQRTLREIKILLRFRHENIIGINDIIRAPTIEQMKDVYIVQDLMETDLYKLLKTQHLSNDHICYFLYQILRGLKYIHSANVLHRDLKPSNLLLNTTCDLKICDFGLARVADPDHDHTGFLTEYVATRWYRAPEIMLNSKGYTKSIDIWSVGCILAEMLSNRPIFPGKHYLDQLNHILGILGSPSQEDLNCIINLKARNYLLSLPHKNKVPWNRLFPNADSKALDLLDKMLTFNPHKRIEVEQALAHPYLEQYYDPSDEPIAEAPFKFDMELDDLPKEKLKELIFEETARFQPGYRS
row,SMILES,IC50 [nM]
1,"Nc1ncc([C@H]2CC[C@H](O)C(F)(F)C2)nc1-c1ccc(C(=O)N[C@H](CO)c2cc(F)cc(Br)c2)c(F)c1 [Example 460, 4-(3-amino-6-((1S,4S)-3,3-difluoro-4-hydroxy-cyclohexyl)pyrazin-2-yl)-2-fluoro-N-((S)-1-(3-fluoro-5-bromophenyl)-2-hydroxyethyl) benzamide]",0.0397
2,"Nc1ncc([C@@H]2CC[C@@H](O)[C@H](O)C2)nc1-c1ccc(C(=O)N[C@H](CO)c2cc(F)cc(I)c2)c(F)c1 [Example 461, 4-(3-amino-6-((1R,3R,4R)-3,4-dihydroxy-cyclohexyl)pyrazin-2-yl)-2-fluoro-N-((S)-1-(3-fluoro-5-iodophenyl)-2-hydroxyethyl) benzamide]",0.00431
3,"Nc1ncc([C@@H]2CC[C@H](O)[C@H](O)C2)nc1-c1ccc(C(=O)N[C@H](CO)c2cc(F)cc(I)c2)c(F)c1 [Example 462, 4-(3-amino-6-((1R,3R,4S)-3,4-dihydroxy-cyclohexyl)pyrazin-2-yl)-2-fluoro-N-((S)-1-(3-fluoro-5-iodophenyl)-2-hydroxyethyl) benzamide]",0.135
4,"Nc1ncc([C@H]2CC[C@H](O)[C@@H](O)C2)nc1-c1ccc(C(=O)N[C@H](CO)c2cc(F)cc(I)c2)c(F)c1 [Example 463, 4-(3-amino-6-((1S,3S,4S)-3,4-dihydroxy-cyclohexyl)pyrazin-2-yl)-2-fluoro-N-((S)-1-(3-fluoro-5-iodophenyl)-2-hydroxyethyl) benzamide]",0.0055
5,"Nc1ncc([C@H]2CC[C@@H](O)[C@@H](O)C2)nc1-c1ccc(C(=O)N[C@H](CO)c2cc(F)cc(I)c2)c(F)c1 [Example 464, 4-(3-amino-6-((1S,3S,4R)-3,4-dihydroxy-cyclohexyl)pyrazin-2-yl)-2-fluoro-N-((S)-1-(3-fluoro-5-iodophenyl)-2-hydroxyethyl) benzamide]",0.137
6,"Nc1ncc([C@@H]2CC[C@@H](O)[C@H](O)C2)nc1-c1ccc(C(=O)N[C@H](CO)c2cc(F)cc(Br)c2)c(F)c1 [Example 465, 4-(3-amino-6-((1R,3R,4R)-3,4-dihydroxy-cyclohexyl)pyrazin-2-yl)-2-fluoro-N-((S)-1-(3-fluoro-5-bromophenyl)-2-hydroxyethyl) benzamide]",0.0187
7,"Nc1ncc([C@H]2CC[C@@H](O)[C@@H](O)C2)nc1-c1ccc(C(=O)N[C@H](CO)c2cc(F)cc(Br)c2)c(F)c1 [Example 466, 4-(3-amino-6-((1S,3S,4R)-3,4-dihydroxy-cyclohexyl)pyrazin-2-yl)-2-fluoro-N-((S)-1-(3-fluoro-5-bromophenyl)-2-hydroxyethyl) benzamide]",0.218
8,"Nc1ncc([C@H]2CC[C@H](O)[C@@H](O)C2)nc1-c1ccc(C(=O)N[C@H](CO)c2cc(F)cc(Br)c2)c(F)c1 [Example 467, 4-(3-amino-6-((1S,3S,4S)-3,4-dihydroxy-cyclohexyl)pyrazin-2-yl)-2-fluoro-N-((S)-1-(3-fluoro-5-bromophenyl)-2-hydroxyethyl) benzamide]",0.0446
9,"Nc1ncc([C@@H]2CC[C@H](O)[C@H](O)C2)nc1-c1ccc(C(=O)N[C@H](CO)c2cc(F)cc(Br)c2)c(F)c1 [Example 468, 4-(3-amino-6-((1R,3R,4S)-3,4-dihydroxy-cyclohexyl)pyrazin-2-yl)-2-fluoro-N-((S)-1-(3-fluoro-5-bromophenyl)-2-hydroxyethyl) benzamide]",0.251
10,"CO[C@H]1CC[C@H](c2cnc(N)c(-c3ccc(C(=O)N[C@H](CO)c4cc(F)cc(Br)c4)c(F)c3)n2)C[C@@H]1O [Example 469, 4-(3-amino-6-((1S,3S,4S)-3-hydroxy,4-methoxylcyclo-hexyl)pyrazin-2-yl)-2-fluoro-N-((S)-1-(3-fluoro-5-bromophenyl)-2-hydroxyethyl) benzamide]",0.136
11,"Nc1ncc([C@H]2CCC(F)(F)[C@H](O)C2)nc1-c1ccc(C(=O)N[C@H](CO)c2cccc(Cl)c2)c(F)c1 [Example 470, 4-(3-amino-6-((1S,3R)-4,4-difluoro-3-hydroxycyclo-hexyl)pyrazin-2-yl)-N-((S)-1-(3-chlorophenyl)-2-hydroxyethyl)-2-fluorobenzamide]",0.221

# Further lines, results first:
row,IC50 [nM],SMILES
1,0.483,"Nc1ncc([C@@H]2CCC(F)(F)[C@H](O)C2)nc1-c1ccc(C(=O)N[C@H](CO)c2cccc(Cl)c2)c(F)c1 [Example 471, 4-(3-amino-6-((1R,3R)-4,4-difluoro-3-hydroxycyclo-hexyl)pyrazin-2-yl)-N-((S)-1-(3-chlorophenyl)-2-hydroxyethyl)-2-fluorobenzamide]"
2,0.179,"Nc1ncc([C@@H]2CCC(F)(F)[C@@H](O)C2)nc1-c1ccc(C(=O)N[C@H](CO)c2cccc(Cl)c2)c(F)c1 [Example 472, 4-(3-amino-6-((1R,3S)-4,4-difluoro-3-hydroxycyclo-hexyl)pyrazin-2-yl)-N-((S)-1-(3-chlorophenyl)-2-hydroxyethyl)-2-fluorobenzamide]"
3,10.5,"Nc1ncc(C(=O)N2CCOCC2)nc1-c1ccc(C(=O)N[C@H](CO)c2cc(F)cc(Br)c2)c(F)c1 [Example 473, (S)-4-(3-amino-6-(morpholine-4-carbonyl)pyrazin-2-yl)-N-(1-(3-bromo-5-fluorophenyl)-2-hydroxyethyl)-2-fluorobenzamide]"
4,1.56,"Nc1ncc(C(=O)N2CCOCC2)cc1-c1ccc(C(=O)N[C@H](CO)c2cc(F)cc(Br)c2)c(F)c1 [Example 474, (S)-4-(2-amino-5-(morpholine-4-carbonyl)pyridin-3-yl)-N-(1-(3-bromo-5-fluorophenyl)-2-hydroxyethyl)-2-fluorobenzamide]"
5,9.68,"Nc1ncc(C(=O)N2CCC(CO)CC2)nc1-c1ccc(C(=O)N[C@H](CO)c2cc(F)cc(Br)c2)c(F)c1 [Example 475, (S)-4-(3-amino-6-(4-(hydroxymethyl)piperidine-1-carbonyl)pyrazin-2-yl)-N-(1-(3-bromo-5-fluorophenyl)-2-hydroxyethyl)-2-fluorobenzamide]"
6,2.02,"Nc1ncc(C(=O)N2CC(O)C2)nc1-c1ccc(C(=O)N[C@H](CO)c2cc(F)cc(Br)c2)c(F)c1 [Example 476, (S)-4-(3-amino-6-(3-hydroxyazetidine-1-carbonyl)pyrazin-2-yl)-N-(1-(3-bromo-5-fluorophenyl)-2-hydroxyethyl)-2-fluorobenzamide]"
7,8.59,"Nc1ncc(C(=O)N2CCC(O)CC2)cc1-c1ccc(C(=O)N[C@H](CO)c2cc(F)cc(Br)c2)c(F)c1 [Example 477, (S)-4-(2-amino-5-(4-hydroxypiperidine-1-carbonyl)pyridin-3-yl)-N-(1-(3-bromo-5-fluorophenyl)-2-hydroxyethyl)-2-fluorobenzamide]"
